One experiment has as its system CA1 pyramidal neurons. Description: Dendritic spine density in hippocampal organotypic slice cultures. The format is cell-based, mouse. The method, then:
Wilde type (C57B1/6) mice were housed in a temperature-controlled room and maintained on a 12 hr light/dark cycle. Food and water were available ad libitum and experiments were carried out in accordance with the local authorization guidelines for the care and use of laboratory animals. Slice cultures were established according to the procedure described by Stoppini and colleagues (Galimberti et al., 2006; Stoppini et al., 1991). […] For organotypic slice cultures, brains of P6-P9 transgenic mice were dissected in cold MEM (GIBCO) medium, and hippocampal coronal sections of 400 μm were obtained with a tissue chopper (McIlwain). Slices were selected, placed on Millicell (Millipore, PICM03050) and cultured in 6-well dishes at 35° C. and 5% CO2 in the presence of 1 ml of medium. The entire slice isolation procedure took about 30 min. The culture medium was exchanged every third day. Treatments were performed in fresh culture medium for the indicated time periods.
Brain slices were transfected with plasmids encoding shCont, and shShank3 using helios gene gun system (Bio-Rad Laboratories, #165-2431) as previously described (Proenca et al., 2013). Subsequently, slices were fixed, stained, mounted, and analyzed following the protocols described below in the immunohistochemistry and microscopy paragraphs.
Slices were fixed for 10 minutes in 4% PFA, washed in PBS and blocked for 4 hr at room temperature in 0.3% Triton X-100 20% Horse Serum/PBS (blocking solution). GFP primary antibody was incubated for 24 hr at 4° C. in the blocking solution. Afterwards, slices were washed in PBS, incubated for 2 hr in 0.3% Triton X-100/PBS with Alexa Fluor® 488 Donkey anti-chicken secondary antibody (Life technologies). Finally, slices were washed in PBS, incubated 10 minutes with DAPI (Life technologies) and mounted on glass slides using ProLong mountant (Life technologies).
High resolution images were acquired on an upright Zeiss LSM700 confocal microscope, using a Plan-Neofluar 100×/1.3 oil immersion objective. For the analysis of dendritic spine density, confocal 3D stacks were acquired in CA1 region for each experiment. To quantify spine density, a stretch of approximately 30 μm was selected on secondary dendrites originating at the branch point from the primary dendrite. Only secondary dendrites were considered to reduce variability. Dendritic length was measured using the ImageJ plugin, Simple Neurite tracer, and spine density manually counted using the Cell Counter plugin.
The above findings implicate CLK2 overexpression as a specific anomaly that is causative for attenuated Akt activity in neurons deficient for Shank3. Consequently, inhibiting CLK2 activity or directly activating Akt would restore neuronal impairments associated with Shank3 loss of function. First, a small-molecule Akt-activator, SC79, was tested for its ability to restore Akt phosphorylation (FIG. 5A). SC79 binds directly to Akt to facilitate an ‘open’ conformation of the protein that is accessible to upstream activating kinases (eg. PDK1). This obviates the need for PtdIns(3,4,5)P3 (PIP3) production and recruitment of Akt to the plasma membrane (Rodgers, Cell Metab. 11, 23-34, 2010). […] Decreased principal neuron dendritic spine density has frequently been observed in Shank3 loss of function models (Durand et al., 2007, Nature Genetics 39: 25-27; Peca et al., 2011, Nature 472: 437-442; Verpelli et al., 2011, The Journal of Biological Chemistry 286: 34839-34850). Knock-down of Shank3 in hippocampal organotypic slice cultures, via biolistic transfection of shRNA vectors, faithfully recapitulated this phenotype in CA1 pyramidal neurons, whereby a two-fold reduction in apical dendrite spine density resulted (FIG. 6A). […]

The test system of another experiment is CLK2. Description: Western blot of CLK2 protein expression in primary neurons. Format: cell-based, rat. The text has this:
E18 primary rat cortical neurons were dissected, cultured and infected 6 days after plating (DIV6) with indicated lentiviruses at MOI 10, as previously described (Proenca et al., 2013). Lentiviruses were produced by calcium phosphate transfection of HEK293T cells with packaging plasmids (Life Technologies) and transfer plasmid in 10 cm dishes. Cells were transferred to fresh medium 6 hrs. post-transfection. Four days post-transfection, the cell medium was collected and pooled from several dishes, cleared of cellular debris by 0.45 μm filtration, and concentrated 100× by centrifugation at 19,000 g for 90 min in a Beckman Ultracentrifuge using a SW28/SW32 rotor. Pellets were suspended in PBS/0.5% BSA and viral titer was determined by ELISA quantification of viral p24 antigen (Zeptometrix Corp, USA). For shRNA plasmid generation, oligonucleotides were annealed and ligated into lentiviral transfer plasmid pLKO.1-GFP vector at the AgeI/EcoRI sites. The target sequences of shRNAs that target rat and mouse Shank3 (5′-3′) are: […] (SEQ ID NO: 1), […] (SEQ ID NO: 2), and […] (SEQ ID NO: 3). The latter was previously reported (Verpelli et al., 2011). A luciferase-targeting sequence was used as an shRNA control: […] (SEQ ID NO: 4).
For immunoprecipitation (IP) of HA-tagged Akt, neurons were lysed in IP buffer (20 mM Tris-HCl pH 7.4, 3 mM EDTA, 3 mM EGTA, 150 mM NaCl, 0.5% NP-40, and protease/phosphatase inhibitor cocktails (Roche)). Lysates were cleared by centrifugation at 13,000 rpm for 10 min and lysates normalized for protein abundance were immunoprecipitated with rabbit HA-tag antibody for 1 h at 4° C. Immuno-complexes were then captured by incubation for an additional 1 hr with Protein A agarose beads (Roche). Beads were washed three times with IP buffer and bound proteins were eluted with 2×SDS-PAGE sample buffer, then boiled for 5 min. […]
A general note: Immunoblotting shows a protein as a band on a membrane.

In the next experiment the test system is Akt. Description: Western blot of Akt phosphorylation in rat primary cortical neurons (Shank3 knock down vs control). The format is cell-based. The settings on record: DIV 16. The text has this:
E18 primary rat cortical neurons were dissected, cultured and infected 6 days after plating (DIV6) with indicated lentiviruses at MOI 10, as previously described (Proenca et al., 2013). Lentiviruses were produced by calcium phosphate transfection of HEK293T cells with packaging plasmids (Life Technologies) and transfer plasmid in 10 cm dishes. Cells were transferred to fresh medium 6 hrs. post-transfection. Four days post-transfection, the cell medium was collected and pooled from several dishes, cleared of cellular debris by 0.45 μm filtration, and concentrated 100× by centrifugation at 19,000 g for 90 min in a Beckman Ultracentrifuge using a SW28/SW32 rotor. Pellets were suspended in PBS/0.5% BSA and viral titer was determined by ELISA quantification of viral p24 antigen (Zeptometrix Corp, USA). For shRNA plasmid generation, oligonucleotides were annealed and ligated into lentiviral transfer plasmid pLKO.1-GFP vector at the AgeI/EcoRI sites. The target sequences of shRNAs that target rat and mouse Shank3 (5′-3′) are: […] […] (SEQ ID NO: 2), and […] (SEQ ID NO: 3). The latter was previously reported (Verpelli et al., 2011). A luciferase-targeting sequence was used as an shRNA control: […] (SEQ ID NO: 4).
For immunoprecipitation (IP) of HA-tagged Akt, neurons were lysed in IP buffer (20 mM Tris-HCl pH 7.4, 3 mM EDTA, 3 mM EGTA, 150 mM NaCl, 0.5% NP-40, and protease/phosphatase inhibitor cocktails (Roche)). Lysates were cleared by centrifugation at 13,000 rpm for 10 min and lysates normalized for protein abundance were immunoprecipitated with rabbit HA-tag antibody for 1 h at 4° C. Immuno-complexes were then captured by incubation for an additional 1 hr with Protein A agarose beads (Roche). Beads were washed three times with IP buffer and bound proteins were eluted with 2×SDS-PAGE sample buffer, then boiled for 5 min. For IP and analysis of ubiquitinated Myc-Clk2, neurons were lysed in Ubiquitin IP buffer (20 mM Tris-HCl pH 7.4, 3 mM EDTA, 3 mM EGTA, 150 mM NaCl, 1% Triton X-100, protease/phosphatase inhibitor cocktails (Roche), 5 mM N-ethylmaleimide, and 3 mM iodoacetamide) containing 1% SDS. Lysates were boiled for 20 min to denature proteins and then centrifuged for 10 min at 13,000 rpm. Lysates were subsequently diluted to 0.1% SDS with Ubiquitin IP buffer and immunoprecipitated with Myc antibody for 1 h. Complexes were then captured by addition of Protein G agarose (Roche) and additional 1 h incubation. Beads were washed 3× and eluted with 2×SDS-PAGE sample buffer, then boiled for 5 min. Samples prepared for SDS-PAGE were then resolved on 4-12% Novex gels (Life Technologies), transferred to PVDF membranes, blocked in 5% low-fat milk in TBS/0.1% Tween-20, and incubated overnight with primary antibodies. After washing and 1 h incubation with secondary antibodies, proteins were visualized by Chemiluminescent detection (Amersham-GE Healthcare Life Sciences).
To determine whether Shank3 deficiency impacts the PI3K-Akt-mTOR signaling pathway (FIG. 1A, gray highlight), lentiviral-mediated delivery of shRNAs was used to knock-down Shank3 in rat primary cortical neuron cultures. Cultured rat primary cortical neurons were transduced with lentiviruses encoding control shRNA or Shank3-shRNA at six days in vitro (DIV 6) and treated with BDNF (50 ng/ml) for 15 or 30 min at 14-16 days in vitro (DIV 14-16). Cell lysates were prepared in RIPA buffer prior to resolution by SDS-PAGE and Western blotting.
Cortical neurons, transduced with shRNA-expressing lentiviruses on DIV 6, were treated with 50 ng/ml BDNF or okadaic acid (100 nM) on DIV 16 and cell lysates were resolved by SDS-PAGE, followed by Western blotting.

The subject of the next experiment is PMDS patients. The settings on record: pilot studies; cited from earlier work.
Another experiment concerns Shank3 knock-out mice. The settings on record: cited from earlier work.
The next experiment has as its system PMDS neurons. The settings on record: cited from earlier work.

Where a SMILES comes first, the peptide text is derived from it. The star is where a group is joined. Cbz = O=C(OCc1ccccc1)*

Turning to `O=c1[nH]c2ccccc2n1C1CCN(Cc2ccc(-c3nc4cc5[nH]cnc5cc4nc3-c3ccccc3)cc2)CC1` [Akti], in the experiment on CA1 pyramidal neurons (Shank3 knock down neurons, 10 μM Akti included in TG003 treatment), the “effect of TG003 on spine density with Akt inhibitor” value is on record as “blocked”. For the same molecule, the dendritic spine density result in the experiment on CA1 pyramidal neurons (Thy1-mGFP transfected slice cultures, 10 μM Akti 24 h, fixed DIV14) is recorded as “sufficient to reduce dendritic spine density”. In the case of `CC(C)C[C@@H](C=O)NC(=O)[C@H](CC(C)C)NC(=O)[C@H](CC(C)C)NC(=O)OCc1ccccc1` [MG132] (Cbz-Leu-Leu-Leu-aldehyde), the CLK2 protein level entry with CLK2 (control cells, 2.5 or 20 μM MG132, 30 minutes) is “rapid increase of CLK2 in control cells”. With `C=C1[C@@H](O)[C@@H]2O[C@]3(CC[C@H](/C=C/[C@@H](C)[C@@H]4CC(C)=C[C@@]5(O[C@H](C[C@@](C)(O)C(=O)O)CC[C@H]5O)O4)O3)CC[C@H]2O[C@@H]1[C@@H](O)C[C@H](C)[C@H]1O[C@@]2(CCCCO2)CC[C@H]1C` [okadaic acid], the “increase of Akt T308 phosphorylation in Shank3 knock down neurons versus increase in control neurons” value in the experiment with Akt (okadaic acid 100 nM) was “two-fold greater”. In addition, the “Akt T308 phosphorylation” value with Akt (okadaic acid 100 nM, alone or with 50 ng/ml BDNF, control and Shank3 knock down neurons) is “enhanced Akt T308 phosphorylation in both control and Shank3 knock down neurons”. On to IGF-1: insulin-like growth factor-1, for which the dendritic spine density result in the experiment on CA1 pyramidal neurons (Shank3 knockdown neurons, 1 μg/ml IGF-1 24 h, with or without 10 μM Akti, fixed DIV 14) is listed as “restored normal dendritic spine density to Shank3 knockdown neurons, in an Akt-dependent manner”. Further, the “motor, cognitive and social impairments” value in the experiment on PMDS patients is “beneficial”. Besides, in the experiment on Shank3 knock-out mice, the “synaptic and motor deficits” value was “alleviated synaptic and motor deficits in Shank3 knock-out mice”. For the same molecule, in the experiment with PMDS neurons, the synaptic impairment entry is reported as “alleviated”. Take insulin: insulin: the “motor, cognitive and social impairments” value in the experiment on PMDS patients is “beneficial”.

With “wild type B56β: Flag-tagged wild type B56β regulatory subunit of PP2A, expressed by lentiviral transduction”, in the experiment with Akt (Shank3 knock down neurons, lentiviral co-expression of Flag-tagged B56β, 50 ng/ml BDNF), the Akt phosphorylation result is reported as “had no effect”.

B1: BDNF: brain derived neurotrophic factor (protein, UniProt P23560 19-247, looked up)
Neurotrophic factor BDNF …: APMKEANIRGQGGLAYPGVRTHGTLESVNGPKAGSRGLTSLADTFEHVIEELLDEDQKVRPNEENNKDADLYTSRVMLSSQVPLEPPLLFLLEEYKNYLDAANMSMRVRRHSDPARRGELSVCDSISEWVTAADKKTAVDMSGGTVTVLEKVPVSKGQLKQYFYETKCNPMGYTKEGCRGIDKRHWNSQCRTTQSYVRALTMDSKKRIGWRFIRIDTSCVCTLTIKRGR
As for B1, the CLK2 protein level entry with CLK2 (Shank3 knock down neurons, BDNF treatment) is listed as “elicited no significant further increase of CLK2 levels”; in the experiment on CLK2 (control neurons, BDNF 30 minutes), “induced the accumulation of CLK2 in control neurons”.
